Drawing on patent US5034531A, “Fused polycyclic pyranyl compounds as antiviral agents” (priority 1988, dated 1991), this text covers IC50 for four compounds.

Values after ≈ are worked out from the molar mass of the structure shown. Where only a bound is given, the exact number is not on record here.

The experiment concerns HSV-2. The experiment in a line: Transient expression assay: inhibition of HSV replication (HSV-2-induced β-galactosidase expression from HSV-1 TK promoter/Lac Z plasmid pON 245 in HeLa cells). It counts as cell-based, Herpes simplex virus HSV-2 (ATCC VR-540). The settings on record: Human alphaherpesvirus 2, HeLa, 24 h, read-out: IC50-values for Inhibition of HSV replication. As for the experimental part:
The following example illustrates the activities of various compounds for inhibiting beta-galactosidase.
Transient Expression Assay
Herpes simplex virus (HSV) is grown and titered on Vero cells, a standard cell line.
Plasmid pON 245 (constructed by Ed Mocarski at Stanford University, Stanford California) is used for the assay. This plasmid contains the HSV-1 thymidine kinase (TK) promoter located immediately 5' of the E. coli Lac Z gene and controls transcription from the bacterial gene in transient assays. Plasmids (22 μg/10^6 cells) are introduced into standard HeLa cells by DEAE-dextran-mediated transfection. DEAE-dextran is an electropositivity charged polymer which is a diethylamino ethyl ether of dextran. Forty-eight hours after transfection, cells are infected with HSV-2 (American Type Collection Culture (ATCC) VR-540) (multiplicity of infection=5 plaque-forming units per cell). Twenty-four hours after viral infection, levels of β-galactosidase in cells are assayed by incubation in the presence of 4-methylumbelliferyl-β-D-galactoside for 2 hours on a microfluorimeter after addition of 0.1 M glycine buffer, pH=10.3. An inhibitory concentration (IC50 value), for example, of 8 μg/ml indicates the amount of compound which reduces maximal β-galactosidase expression by 50 percent. The inhibition of expression of β-galactosidase activity indicates the inhibition of viral replication at events prior to or including […] kinase (TK) expression by HSV-2.
For the compound `O=c1c2c(oc3ncccc13)-c1ccccc1CCC2`, the half-maximal inhibitory concentration (IC50) is over 25 µg/mL.

Consider `O=c1c2c(oc3ccccc13)-c1ccccc1CCC2`, for which the IC50 was determined as 8 µg/mL (≈ 30.5 µM).

In the case of `O=c1c(-c2ccccc2)coc2ncc(Br)cc12`, the half-inhibitory concentration (IC50) worked out at 10 µg/mL (≈ 33.1 µM).

For `O=c1c2c(oc3ncccc13)CCc1ccccc1-2`, the IC50 amounted to 16 µg/mL (≈ 64.2 µM).
